Laboratory results reported in patent US20260092071A1, “COMPOUNDS AND COMPOSITIONS AS SMARCA2/4 DEGRADERS AND USES THEREOF” (REGENTS OF THE UNIVERSITY OF MICHIGAN, priority 2022, published 2026).

Tests used:
[1] = biological target: SMARCA2 (Homo sapiens, UniProt P51531); assay: HiBit assay in engineered HT1080 CRISPR knock-in cell, 6 hrs (B series), SMARCA2; type: cell-based; settings: 6 hrs incubation; for DC50: read-out: SMARC A2 HT1080 HiBit DC50; for Dmax: HT-1080, HT1080 CRISPR knock-in cells, read-out: SMARC A2 HT1080 HiBit Dmax (%)
Sequence of SMARCA2 (P51531 whole entry): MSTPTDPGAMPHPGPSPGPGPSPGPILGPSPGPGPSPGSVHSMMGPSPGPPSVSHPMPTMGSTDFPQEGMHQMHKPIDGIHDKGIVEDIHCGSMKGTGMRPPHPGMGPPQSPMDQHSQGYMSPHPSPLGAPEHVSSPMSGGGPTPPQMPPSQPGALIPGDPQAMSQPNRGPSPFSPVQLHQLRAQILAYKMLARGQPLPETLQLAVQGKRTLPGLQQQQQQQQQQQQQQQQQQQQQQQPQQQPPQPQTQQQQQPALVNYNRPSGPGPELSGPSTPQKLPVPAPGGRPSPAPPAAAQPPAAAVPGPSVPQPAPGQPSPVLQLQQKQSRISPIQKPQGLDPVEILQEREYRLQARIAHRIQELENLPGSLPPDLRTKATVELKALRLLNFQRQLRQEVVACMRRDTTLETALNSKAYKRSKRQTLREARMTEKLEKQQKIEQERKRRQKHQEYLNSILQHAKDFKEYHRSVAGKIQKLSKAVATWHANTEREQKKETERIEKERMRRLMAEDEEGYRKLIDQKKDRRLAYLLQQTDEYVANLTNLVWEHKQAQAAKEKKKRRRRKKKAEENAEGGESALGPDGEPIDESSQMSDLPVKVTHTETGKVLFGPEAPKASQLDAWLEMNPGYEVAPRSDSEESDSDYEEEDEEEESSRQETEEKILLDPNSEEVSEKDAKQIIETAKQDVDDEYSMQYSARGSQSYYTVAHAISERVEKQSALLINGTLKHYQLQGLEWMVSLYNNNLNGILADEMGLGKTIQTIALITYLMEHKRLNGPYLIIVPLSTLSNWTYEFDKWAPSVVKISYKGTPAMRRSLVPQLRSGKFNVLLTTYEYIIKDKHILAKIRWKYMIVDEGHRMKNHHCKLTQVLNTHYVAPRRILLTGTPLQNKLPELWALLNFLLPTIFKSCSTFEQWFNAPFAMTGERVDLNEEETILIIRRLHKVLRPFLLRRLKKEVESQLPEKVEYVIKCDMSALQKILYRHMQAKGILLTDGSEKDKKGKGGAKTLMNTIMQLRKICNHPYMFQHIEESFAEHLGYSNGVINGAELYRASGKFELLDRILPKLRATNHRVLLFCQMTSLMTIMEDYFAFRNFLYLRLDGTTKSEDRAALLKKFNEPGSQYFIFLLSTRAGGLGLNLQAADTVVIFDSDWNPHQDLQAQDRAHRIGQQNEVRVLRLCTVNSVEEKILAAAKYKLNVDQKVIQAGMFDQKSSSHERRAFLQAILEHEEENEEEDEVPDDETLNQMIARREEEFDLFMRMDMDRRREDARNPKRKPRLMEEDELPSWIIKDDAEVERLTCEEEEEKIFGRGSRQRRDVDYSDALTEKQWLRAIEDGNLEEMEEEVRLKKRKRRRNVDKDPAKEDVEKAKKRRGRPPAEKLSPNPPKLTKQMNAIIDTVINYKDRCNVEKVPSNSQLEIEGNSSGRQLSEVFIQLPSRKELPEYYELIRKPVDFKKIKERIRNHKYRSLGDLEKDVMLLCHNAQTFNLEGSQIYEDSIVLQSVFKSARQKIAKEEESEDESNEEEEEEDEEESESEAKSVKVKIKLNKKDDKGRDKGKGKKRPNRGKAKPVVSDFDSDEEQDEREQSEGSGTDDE
Method in brief: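 Remaining SMARCA2 protein measured as HiBiT luminescence after cell lysis with LgBiT plus lytic substrate. Engineered HT1080 knock-in cells (2000/well) were first treated 6 h at 37 °C with compound at a final 0.1% DMSO.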

[2] = biological target: SMARCA4 (Homo sapiens, UniProt P51532); assay: HiBit assay in engineered HT1080 CRISPR knock-in cell, 6 hrs (B series), SMARCA4; type: cell-based; settings: 6 hrs incubation; for DC50: read-out: SMARC A4 HT1080 HiBit DC50; for Dmax: HT-1080, HT1080 CRISPR knock-in cells, read-out: SMARC A4 HT1080 HiBit Dmax(%)
Sequence of SMARCA4 (P51532 whole entry): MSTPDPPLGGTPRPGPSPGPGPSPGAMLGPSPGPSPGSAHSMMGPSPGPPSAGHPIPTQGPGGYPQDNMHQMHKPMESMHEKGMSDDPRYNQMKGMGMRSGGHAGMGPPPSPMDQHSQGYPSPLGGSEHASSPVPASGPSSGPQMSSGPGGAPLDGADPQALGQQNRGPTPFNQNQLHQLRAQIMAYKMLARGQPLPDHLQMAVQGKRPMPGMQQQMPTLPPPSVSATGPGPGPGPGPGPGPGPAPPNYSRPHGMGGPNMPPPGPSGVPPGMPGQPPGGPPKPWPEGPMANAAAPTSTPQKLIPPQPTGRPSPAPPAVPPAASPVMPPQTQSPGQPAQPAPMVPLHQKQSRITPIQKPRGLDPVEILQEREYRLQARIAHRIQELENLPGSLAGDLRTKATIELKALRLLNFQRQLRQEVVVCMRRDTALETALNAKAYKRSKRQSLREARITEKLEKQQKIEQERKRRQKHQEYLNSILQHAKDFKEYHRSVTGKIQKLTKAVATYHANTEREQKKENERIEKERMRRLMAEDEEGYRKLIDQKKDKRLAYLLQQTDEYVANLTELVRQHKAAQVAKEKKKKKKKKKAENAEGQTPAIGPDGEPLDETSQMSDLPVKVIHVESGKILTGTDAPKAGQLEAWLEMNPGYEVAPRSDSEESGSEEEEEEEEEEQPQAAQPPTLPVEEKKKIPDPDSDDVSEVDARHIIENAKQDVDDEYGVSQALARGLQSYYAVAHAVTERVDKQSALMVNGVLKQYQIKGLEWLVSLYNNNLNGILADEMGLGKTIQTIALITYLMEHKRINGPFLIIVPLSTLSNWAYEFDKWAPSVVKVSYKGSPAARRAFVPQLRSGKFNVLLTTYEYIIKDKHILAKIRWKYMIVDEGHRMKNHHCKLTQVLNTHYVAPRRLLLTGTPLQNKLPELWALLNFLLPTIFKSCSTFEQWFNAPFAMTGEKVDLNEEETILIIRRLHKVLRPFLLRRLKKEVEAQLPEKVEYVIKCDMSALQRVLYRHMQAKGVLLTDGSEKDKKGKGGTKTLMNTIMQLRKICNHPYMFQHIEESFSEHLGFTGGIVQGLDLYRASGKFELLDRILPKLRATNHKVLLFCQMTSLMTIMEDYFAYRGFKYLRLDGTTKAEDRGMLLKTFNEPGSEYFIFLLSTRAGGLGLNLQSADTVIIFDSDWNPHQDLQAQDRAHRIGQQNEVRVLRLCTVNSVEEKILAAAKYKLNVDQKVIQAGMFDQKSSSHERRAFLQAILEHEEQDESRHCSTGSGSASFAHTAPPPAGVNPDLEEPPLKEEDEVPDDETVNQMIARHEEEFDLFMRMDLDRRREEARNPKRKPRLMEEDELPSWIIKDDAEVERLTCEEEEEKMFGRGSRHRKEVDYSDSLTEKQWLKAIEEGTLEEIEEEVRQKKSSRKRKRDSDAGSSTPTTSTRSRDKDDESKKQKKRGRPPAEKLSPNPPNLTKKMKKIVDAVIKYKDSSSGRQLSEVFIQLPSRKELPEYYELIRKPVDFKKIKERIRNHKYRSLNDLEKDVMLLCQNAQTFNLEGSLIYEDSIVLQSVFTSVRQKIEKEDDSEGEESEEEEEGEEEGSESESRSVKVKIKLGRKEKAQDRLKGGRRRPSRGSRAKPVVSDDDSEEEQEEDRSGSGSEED
Method in brief: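 Compounds were dispensed first, then HT1080 knock-in cells added and incubated for 6 hrs at 37° C. Next, detection reagent containing LgBiT and lytic substrate was added. Plates were shaken 10 min and centrifuged, and luminescence was measured.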

Row | Structure (SMILES) | DC50 ([1]; HT1080 CRISPR knock-in cells) [nM] | Dmax [1] [%] | DC50 ([2]; HT1080 CRISPR knock-in cells) [nM] | Dmax [2] [%] | SMARC A2 HT1080 HiBit Dmax (%) ([1]; HT1080 CRISPR knock-in cells) | SMARC A4 HT1080 HiBit Dmax(%) ([2]; HT1080 CRISPR knock-in cells)
1 | Cc1ncsc1-c1ccc([C@H](CC(=O)NCCN2CCC(c3ccc4c(c3)-n3c(nc(=O)c5c(Cl)cccc53)C4(C)C)CC2)NC(=O)[C@@H]2C[C@@H](O)CN2C(=O)[C@@H](NC(=O)C2(F)CC2)C(C)(C)C)cc1 [Compound B44, (2S,4R)-N-((S)-3-((2-(4-(4-chloro-7,7-dimethyl-5-oxo-5,7-dihydroindolo[1,2-a]quinazolin-10-yl)piperidin-1-yl)ethyl)amino)-1-(4-(4-methylthiazol-5-yl)phenyl)-3-oxopropyl)-1-((S)-2-(1-fluorocyclopropane-1-carboxamido)-3,3-dimethylbutanoyl)-4-hydroxypyrrolidine-2-carboxamide] | 100 to 500 | < 50 | 100 to 500 | < 50 | – | –
2 | Cc1ncsc1-c1ccc(C2(NC(=O)[C@@H]3C[C@@H](O)CN3C(=O)[C@@H](n3cc([C@H]4CC[C@H](CN5CCC(c6ccc7c(c6)-n6c(nc(=O)c8c(Cl)cccc86)C7(C)C)CC5)CC4)nn3)C(C)(C)C)CNC2)cc1 [Compound B113, (2S,4R)-1-((S)-2-(4-((1r,4S)-4-((4-(4-chloro-7,7-dimethyl-5-oxo-5,7-dihydroindolo[1,2-a]quinazolin-10-yl)piperidin-1-yl)methyl)cyclohexyl)-1H-1,2,3-triazol-1-yl)-3,3-dimethylbutanoyl)-4-hydroxy-N-(3-(4-(4-methylthiazol-5-yl)phenyl)azetidin-3-yl)pyrrolidine-2-carboxamide] | 100 to 500 | > 90 | 501 to 1000 | < 50 | – | –
3 | CC(=O)c1ccc([C@H](C)NC(=O)[C@@H]2C[C@@H](O)CN2C(=O)[C@H](C(C)C)n2cc([C@H]3CC[C@H](CN4CCC(c5ccc6c(c5)-n5c(nc(=O)c7c(Cl)cccc75)C6(C)C)CC4)CC3)nn2)cc1 [Compound B134, (2S,4R)-N-((S)-1-(4-acetylphenyl)ethyl)-1-((S)-2-(4-((1r,4S)-4-((4-(4-chloro-7,7-dimethyl-5-oxo-5,7-dihydroindolo[1,2-a]quinazolin-10-yl)piperidin-1-yl)methyl)cyclohexyl)-1H-1,2,3-triazol-1-yl)-3-methylbutanoyl)-4-hydroxypyrrolidine-2-carboxamide] | < 100 | > 90 | < 100 | 50 to 69 | – | –
4 | Cc1ncsc1-c1ccc([C@H](C)NC(=O)[C@@H]2C[C@@H](O)CN2C(=O)[C@@H](NC(=O)CC2CCC(N3CCC(c4ccc5c(c4)-n4c(nc(=O)c6c(Cl)cccc64)C5(C)C)CC3)CC2)C(C)(C)C)cc1 (stereo partly drawn) [Compound B63, (2S,4R)-1-((S)-2-(2-(4-(4-(4-chloro-7,7-dimethyl-5-oxo-5,7-dihydroindolo[1,2-a]quinazolin-10-yl)piperidin-1-yl)cyclohexyl)acetamido)-3,3-dimethylbutanoyl)-4-hydroxy-N-((S)-1-(4-(4-methylthiazol-5-yl)phenyl)ethyl)pyrrolidine-2-carboxamide] | < 100 | > 90 | 100 to 500 | < 50 | – | –
5 | Cc1ncsc1-c1ccc([C@H](C)NC(=O)[C@@H]2C[C@@H](O)CN2C(=O)[C@H](C(C)C)n2cc(CCCCN3CCC(c4ccc5c(c4)-n4c(nc(=O)c6c(Cl)cccc64)C5(C)C)CC3)nn2)cc1 [Compound B73, (2S,4R)-1-((S)-2-(4-(4-(4-(4-chloro-7,7-dimethyl-5-oxo-5,7-dihydroindolo[1,2-a]quinazolin-10-yl)piperidin-1-yl)butyl)-1H-1,2,3-triazol-1-yl)-3-methylbutanoyl)-4-hydroxy-N-((S)-1-(4-(4-methylthiazol-5-yl)phenyl)ethyl)pyrrolidine-2-carboxamide] | < 100 | > 90 | 100 to 500 | 70 to 90 | – | –
6 | Cc1cc(C(C(=O)N2C[C@H](O)C[C@H]2C(=O)N[C@@H](CN2CCC(N3CCC(c4cccc5c4C(C)(C)c4nc(=O)c6c(Cl)cccc6n4-5)CC3)CC2)c2ccc(-c3scnc3C)cc2)C(C)C)on1 (stereo partly drawn) [Compound B155, (2S,4R)-N-((R)-2-(4-(4-chloro-7,7-dimethyl-5-oxo-5,7-dihydroindolo[1,2-a]quinazolin-8-yl)-[1,4'-bipiperidin]-1'-yl)-1-(4-(4-methylthiazol-5-yl)phenyl)ethyl)-4-hydroxy-1-(3-methyl-2-(3-methylisoxazol-5-yl)butanoyl)pyrrolidine-2-carboxamide] | < 100 | > 90 | < 100 | 70 to 90 | – | –
7 | Cc1ncsc1-c1ccc([C@H](CC(=O)NCC2CCC(N3CCC(c4ccc5c(c4)-n4c(nc(=O)c6c(Cl)cccc64)C5(C)C)CC3)CC2)NC(=O)[C@@H]2C[C@@H](O)CN2C(=O)[C@@H](NC(=O)C2(F)CC2)C(C)(C)C)cc1 (stereo partly drawn) [Compound B53, (2S,4R)-N-((S)-3-(((4-(4-(4-chloro-7,7-dimethyl-5-oxo-5,7-dihydroindolo[1,2-a]quinazolin-10-yl)piperidin-1-yl)cyclohexyl)methyl)amino)-1-(4-(4-methylthiazol-5-yl)phenyl)-3-oxopropyl)-1-((S)-2-(1-fluorocyclopropane-1-carboxamido)-3,3-dimethylbutanoyl)-4-hydroxypyrrolidine-2-carboxamide] | 100 to 500 | 70 to 90 | 100 to 500 | 50 to 69 | – | –
8 | Cc1ncsc1-c1ccc([C@H](C)NC(=O)[C@@H]2C[C@@H](O)CN2C(=O)[C@@H](NC(=O)CN2CCC(c3ccc4c(c3)C(C)(C)c3nc(=O)c5c(Cl)cccc5n3-4)CC2)C(C)(C)C)cc1 [Compound B6, (2S,4R)-1-((S)-2-(2-(4-(4-chloro-7,7-dimethyl-5-oxo-5,7-dihydroindolo[1,2-a]quinazolin-9-yl)piperidin-1-yl)acetamido)-3,3-dimethylbutanoyl)-4-hydroxy-N—((S)-1-(4-(4-methylthiazol-5-yl)phenyl)ethyl)pyrrolidine-2-carboxamide] | < 100 | > 90 | < 100 | > 90 | – | –
9 | Cc1ncsc1-c1ccc([C@H](C)NC(=O)[C@@H]2C[C@@H](O)CN2C(=O)[C@H](C(C)C)n2cc(C3CCN(CCCN4CCC(c5ccc6c(c5)-n5c(nc(=O)c7c(Cl)cccc75)C6(C)C)CC4)CC3)nn2)cc1 [Compound B66, (2S,4R)-1-((S)-2-(4-(1-(3-(4-(4-chloro-7,7-dimethyl-5-oxo-5,7-dihydroindolo[1,2-a]quinazolin-10-yl)piperidin-1-yl)propyl)piperidin-4-yl)-1H-1,2,3-triazol-1-yl)-3-methylbutanoyl)-4-hydroxy-N—((S)-1-(4-(4-methylthiazol-5-yl)phenyl)ethyl)pyrrolidine-2-carboxamide] | < 100 | > 90 | < 100 | > 90 | – | –
10 | Cc1ncsc1-c1ccc([C@H](C)NC(=O)[C@@H]2C[C@@H](O)CN2C(=O)[C@@H](c2cc(OC3CCC(Cn4cc(-c5ccc6c(c5)-n5c(nc(=O)c7c(Cl)cccc75)C6(C)C)cn4)CC3)no2)C(C)C)cc1 (stereo partly drawn) [Compound B96, (2S,4R)-1-((R)-2-(3-((4-((4-(4-chloro-7,7-dimethyl-5-oxo-5,7-dihydroindolo[1,2-a]quinazolin-10-yl)-1H-pyrazol-1-yl)methyl)cyclohexyl)oxy)isoxazol-5-yl)-3-methylbutanoyl)-4-hydroxy-N-((S)-1-(4-(4-methylthiazol-5-yl)phenyl)ethyl)pyrrolidine-2-carboxamide] | < 100 | – | 100 to 500 | – | B (B (70-90% degradation)) | D (D (<50% degradation))
11 | Cc1ncsc1-c1ccc([C@H](C)NC(=O)[C@@H]2C[C@@H](O)CN2C(=O)C(c2cc(OCCCCn3cc(-c4ccc5c(c4)C(C)(C)c4nc(=O)c6c(Cl)cccc6n4-5)cn3)no2)C(C)C)cc1 (stereo partly drawn) [Compound B99, (2S,4R)-1-(2-(3-(4-(4-(4-chloro-7,7-dimethyl-5-oxo-5,7-dihydroindolo[1,2-a]quinazolin-9-yl)-1H-pyrazol-1-yl)butoxy)isoxazol-5-yl)-3-methylbutanoyl)-4-hydroxy-N-((S)-1-(4-(4-methylthiazol-5-yl)phenyl)ethyl)pyrrolidine-2-carboxamide] | < 100 | 50 to 69 | > 1000 | < 50 | – | –
12 | Cc1ncsc1-c1ccc([C@H](C)NC(=O)[C@@H]2C[C@@H](O)CN2C(=O)[C@@H](NC(=O)[C@H]2CC[C@H](CN3CCC(c4ccc5c(c4)-n4c(nc(=O)c6c(Cl)cccc64)C5(C)C)CC3)CC2)C(C)(C)C)cc1 [Compound B40, (2S,4R)-1-((S)-2-((1r,4S)-4-((4-(4-chloro-7,7-dimethyl-5-oxo-5,7-dihydroindolo[1,2-a]quinazolin-10-yl)piperidin-1-yl)methyl)cyclohexane-1-carboxamido)-3,3-dimethylbutanoyl)-4-hydroxy-N-((S)-1-(4-(4-methylthiazol-5-yl)phenyl)ethyl)pyrrolidine-2-carboxamide] | < 100 | > 90 | 100 to 500 | < 50 | – | –
